Measured values published in PubChem BioAssay (NCI).
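These data come from cells grown in 96-well plates and exposed to compound for 48 hours at five concentrations. TGI: total growth inhibition.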

Legend:
Test in all cases: growth of human tumour cells (NCI), 48 h
UO-31 renal = system: UO-31 renal
DLD-1 colon = system: DLD-1 colon
M19-MEL melanoma = system: M19-MEL melanoma
U251 CNS = system: U251 CNS
DMS 114 small cell lung = system: DMS 114 small cell lung
DMS 273 small cell lung = system: DMS 273 small cell lung
KM20L2 colon = system: KM20L2 colon
SNB-78 CNS = system: SNB-78 CNS
XF 498 CNS = system: XF 498 CNS
LXFL 529 NSCLC = system: LXFL 529 NSCLC
HOP-18 NSCLC = system: HOP-18 NSCLC
RXF-631 renal = system: RXF-631 renal

Structure (SMILES) | TGI (UO-31 renal) [µM] | TGI (DLD-1 colon) [µM] | TGI (M19-MEL melanoma) [µM] | TGI (U251 CNS) [µM] | TGI (DMS 114 small cell lung) [µM] | TGI (DMS 273 small cell lung) [µM] | TGI (KM20L2 colon) [µM] | TGI (SNB-78 CNS) [µM] | TGI (XF 498 CNS) [µM] | TGI (LXFL 529 NSCLC) [µM] | TGI (HOP-18 NSCLC) [µM] | TGI (RXF-631 renal) [µM]
COc1cccc(-c2nccc3c(OCc4ccccc4)c(OC)c(OC)cc23)c1 | > 100 | > 100 | > 100 | > 100 | > 100 | > 100 | > 100 | > 100 | > 100 | > 100 |  | 
Cn1ccnc1CCc1ccc(Cl)c(Cl)c1 | > 100 | > 100 | > 100 | > 100 | > 100 | > 100 | > 100 | > 100 |  | > 100 | > 100 | 
CN(C)c1ccc(/C=C/C(=O)O)cc1 | > 100 | > 100 | > 100 |  | > 100 |  | > 100 | > 100 | > 100 | > 100 | > 100 | 
O=C(CSc1nnc(-c2ccc(N=Cc3ccc(Cl)cc3)cc2)o1)Nc1ccc([N+](=O)[O-])cc1 | 37.2 |  | 36.9 | 37.1 | 32.9 | 30.4 | 73.5 | 84.4 | 47.1 | 35.9 | > 100 | 
O=[N+]([O-])c1ccc([N+]2=NC(c3ccccc3)=NN(c3ccccc3)C2)cc1 | > 100 | > 100 | > 100 | > 100 | 94.1 | > 100 | > 100 | > 100 | 58.9 | > 100 | > 100 | 
Cn1c(=O)c(C(=O)NC(=O)NCCCCCOC(=O)CCCCCCCCCCC(=O)OCCCCCNC(=O)NC(=O)c2cn(Cc3ccccc3)c(=O)n(C)c2=O)cn(Cc2ccccc2)c1=O | > 100 | > 100 | > 100 | > 100 | > 100 | > 100 | > 100 | > 100 | > 100 | > 100 | > 100 | 
CCOC(=O)C(C)(C)Oc1ccc2c(-c3ccc(Cl)cc3)c(-c3ccc(Cl)cc3)c(=O)oc2c1 | > 100 | > 100 | > 100 | > 100 | > 100 | > 100 | > 100 |  |  | > 100 |  | > 100
CCCCn1c2ccccc2c2ccc3c(c21)C(=O)C=CC3=O | > 100 | > 100 | 1.04 | > 100 | > 100 | > 100 | > 100 | > 100 |  | > 100 | > 100 | 
CCN(CC)CCOc1ccc(C(O)(Cc2ccc(OC)cc2)c2ccccc2)cc1 (stereo unspecified) | 62 | 72.3 | 29.5 | 35.5 | 31.1 | 28.3 | 9.27 | 44.7 | 27.5 | 37.2 |  | 
Cc1cc(N(CCC#N)CCC#N)ccc1/C=C1\SC(=S)NC1=O | > 100 |  |  | > 100 |  |  |  |  |  |  |  | 
COC(=O)NC(Cc1ccccc1)NC(C)=O (stereo unspecified) | > 100 |  |  | > 100 |  |  |  |  |  |  |  | 
N=c1oc2ccccc2cc1-c1nc2ccccc2c(=O)[nH]1 | > 100 |  |  | > 100 |  |  |  |  |  |  |  | 
O=C1CS[C@@](CC(c2ccc(Cl)cc2)c2ccc(Cl)cc2)(c2ccc(Cl)cc2)N1 | > 100 |  |  | 63.1 |  |  |  |  |  |  |  | 
Cc1cc(N2CCCC2)c([N+](=O)[O-])cc1[N+](=O)[O-] | > 100 |  |  | > 100 |  |  |  |  |  |  |  | 
CCCCCCCCCCCCCCCCCC(=O)Nc1ccn(C2CCC(COP(=O)(O)O)O2)c(=O)n1 (stereo unspecified) | > 100 |  |  | > 100 |  |  |  |  |  |  |  | 
CCCC(=O)NC(Nc1ccc(F)cc1)(C(F)(F)F)C(F)(F)F | > 100 |  |  | > 100 |  |  |  |  |  |  |  | 
COc1cc2c(cc1OC)[C@@](C)(C(O)C(O)C(C)(C)O)NCC2 (stereo partly specified) | > 100 |  |  | > 100 |  |  |  |  |  |  |  | 
COC12CCC(C(C(=O)c3ccccc3)=C1C(=O)c1ccccc1)C(O)C2 (stereo unspecified) | > 100 | > 100 | > 100 |  | > 100 | > 100 |  | > 100 | > 100 | > 100 |  | > 100
CN(C)CC1CCC/C(=C\c2ccc(OC(=O)/C=C/c3ccc(Cl)c(Cl)c3)cc2)C1=O (stereo unspecified) | 13.9 |  |  | 27.9 |  |  |  |  |  |  |  | 
S=c1sc2cscc2s1 | 35.6 | 50.6 | 34.3 | > 100 | 45.2 | > 100 | 66.5 | > 100 | 49.9 | 38.6 | 67.2 | 61
C[n+]1c2ccccc2c(/C=N\NS(=O)(=O)c2ccc(Cl)cc2)c2ccccc21 | > 100 | > 100 | > 100 | > 100 | > 100 | > 100 | > 100 | > 100 | > 100 |  |  | 

Structure (SMILES) | TGI (UO-31 renal) [µM] | TGI (DLD-1 colon) [µM] | TGI (M19-MEL melanoma) [µM] | TGI (U251 CNS) [µM] | TGI (DMS 114 small cell lung) [µM] | TGI (DMS 273 small cell lung) [µM] | TGI (KM20L2 colon) [µM] | TGI (SNB-78 CNS) [µM] | TGI (XF 498 CNS) [µM] | TGI (LXFL 529 NSCLC) [µM] | TGI (HOP-18 NSCLC) [µM] | TGI (RXF-631 renal) [µM]
COC1=C2C=[N+](C)C3C(=C2C=CC1OC)Cc1cc2c(cc13)OCO2 (stereo unspecified) | 26.6 |  |  | 30.7 |  |  |  |  |  |  |  | 
COc1ccc2c(c1)c1nn(CCN3CCCCC3)c3ccc4c(=O)n(CCN(C)C)c(=O)n2c4c13 | 0.354 |  |  | 0.111 |  |  |  |  |  |  |  | 
CCOC(=O)c1[nH]c2cccc3c2c1CC[C@H](NC(=O)C(F)(F)F)C3=O | > 100 |  |  | 72.7 |  |  |  |  |  |  |  | 
COC1(c2cccs2)c2ccccc2C(OC)(c2cccs2)c2ccccc21 (stereo unspecified) | > 100 |  |  | > 100 |  |  |  |  |  |  |  | 
O=C(O)CCc1ccc2c(c1)CC1(Cc3ccccc3C1)C2 | > 100 |  |  | > 100 |  |  |  |  |  |  |  | 
CC(=O)OCCCCn1cc(Cn2ccc(=O)n(Cc3cn(CCCCOC(C)=O)nn3)c2=O)nn1 | > 100 |  |  | > 100 |  |  |  |  |  |  |  | 
COC12C=CC(C=C1C#N)CC2 (stereo unspecified) (tested in a mixture with another compound) | > 100 |  |  | > 100 |  |  |  |  |  |  |  | 
CN(C)CCNC(=O)c1ccc(Cl)c2cc3ccccc3nc12 | 11 |  |  | 10.6 |  |  |  |  |  |  |  | 
CCOC(=O)C(=O)CC(=O)C1=C(c2ccccc2OC)CC(c2cccs2)=CC1=O | > 100 |  |  | > 100 |  |  |  |  |  |  |  | 
Cc1c(-c2nnc(-c3ccccc3)o2)c(=O)n(-c2ccccc2)n1C | > 100 | > 100 | > 100 | > 100 | > 100 | > 100 | > 100 | > 100 | > 100 | > 100 | > 100 | 
C=C1CCCC2[C@](C)(CC3=C(O)C(=O)C=C(OC)C3=O)[C@@H](C)CC[C@]12C (stereo partly specified) |  | 69.1 | 5.95 | > 100 | 7.61 |  | 31.8 |  | 56.7 | 27.2 | 8.59 | > 100
O=C(O)CNC(=O)c1ccc2cc(C(=O)N3CC(CCl)c4ccc([N+](=O)[O-])cc43)[nH]c2c1 (stereo unspecified) | > 100 |  |  | > 100 |  |  |  |  |  |  |  | 
O=C1CS(=O)(=O)C(c2cccc(Oc3ccccc3)c2)N1c1ccccc1 (stereo unspecified) | 80.4 |  |  | 33.3 |  |  |  |  |  |  |  | 
Cc1ccc(S(=O)(=O)n2ccc(-c3ccc4ccn(S(=O)(=O)c5ccc(C)cc5)c4c3)c2)cc1 | > 100 |  |  | > 100 |  |  |  |  |  |  |  | 
COC(=O)C1=CON2C3CC4CC(C3)CC(C4)C12C (stereo unspecified) | > 100 |  |  | > 100 |  |  |  |  |  |  |  | 
CNC(=S)NNc1ncnc2c1ncn2-c1ccc(C)cc1 | > 100 |  |  | > 100 |  |  |  |  |  |  |  | 
CC(=O)OC(C)(C)CCC(=O)[C@](C)(O)[C@H]1[C@H](O)C[C@@]2(C)[C@@H]3CC=C4C(C)=C(OC5OC(CO)C(O)C(O)C5O)C(=O)C[C@@H]4[C@]3(C)C(=O)C[C@]12C (stereo partly specified) | > 100 |  |  | > 100 |  |  |  |  |  |  |  | 
COc1ccc([C@]23CCN4COC[C@@H]([C@H]42)C2(CC3)OCC(C)(C)CO2)cc1OC | > 100 |  |  | > 100 |  |  |  |  |  |  |  | 
COP(=O)(O)C(N)Cc1c[nH]c2ccccc12 (stereo unspecified) | > 100 |  |  | > 100 |  |  |  |  |  |  |  | 
CCCN(CCC)C1CCc2c(ccc3cc[nH]c23)C1 (stereo unspecified) | > 100 |  |  | > 100 |  |  |  |  |  |  |  | 
COc1ccc2c(c1)CCN1CCCc3ccccc3C21 (stereo unspecified) | > 100 |  |  | > 100 |  |  |  |  |  |  |  | 
